From BindingDB's records for doi:10.1016/j.bmcl.2004.03.096 (The University of Newcastle, 2004) come the findings set out here.

The IC50 is the concentration at which inhibition is half-maximal. Read a high IC50 as lower potency.

The first assay can be described thus: Concentration required against dynamin-1 GTPase activity of sheep brain.
Turning to `CCCCCCCCCCCCCCN`, half-maximal inhibition (IC50) was put at 8.74 µM.

The next assay can be described thus: Concentration required against dynamin-1 GTPase activity of sheep brain; increased dynamin I GTPase activity at 30 uM.
Compound `CCCC/C=C\C[C@@H](O)/C=C/C=C/C=C\[C@@H](O)CCCC(=O)O` [(6Z,8E,10E,14Z)-(5S,12R)-5,12-Dihydroxy-nonadeca-6,8,10,14-tetraenoic acid] returned an IC50 above 300 µM.

Another assay can be described thus: Concentration required against dynamin-1 GTPase activity of sheep brain. This is another data set of the same source.
Compound `CCCCCCCCCCCCCCN` returned an IC50 of 14.9 µM.
`NCCCCCCCCCCCCN` [1,12-diaminododecane] showed an IC50 of 39.6 µM.
On the same count and under the same terms, then `CCCCCCCCCCCCCCOC(CN)CN` [2-Tetradecyloxy-propane-1,3-diammonium chloride], with 7.37 µM; and `CCCCCCCCCCCCCC[N+](C)(C)CCO` [(2-Hydroxy-ethyl)-dimethyl-tetradecyl-ammonium; bromide], with 9.36 µM.
Turning to `CCCC/C=C\C/C=C\C/C=C\C/C=C\CCCC(=O)NCCF` [(5Z,8Z,11Z,14Z)-Nonadeca-5,8,11,14-tetraenoic acid (2-fluoro-ethyl)-amide], the IC50 is above 300 µM.
Still for that read-out and setting: then `CCCCCCCCCCCCCC[N+](C)(C)CCCC` [Butyl-dimethyl-tetradecyl-ammonium; bromide], with 8.02 µM; and `CCCCCCCCCCCCCC[N+](C)(C)CCC` [Dimethyl-propyl-tetradecyl-ammonium; bromide], with 8.85 µM; and `CCCCCCCCCCCC[N+](C)(C)CC` [Dodecyl-ethyl-dimethyl-ammonium; bromide], with 10.1 µM.
`CCCCCCCCCCCCCCN` [Tetradecylamine] gave an IC50 of 20.2 µM.
On the same count and under the same terms, then `CCCCCCCCCCCCCCCC[P+](CCCC)(CCCC)CCCC` [Tributyl-hexadecyl-phosphonium; bromide], with 10.2 µM.
In the case of `CCCCCCCCCCCCC(=O)OCCN(C)C` [Tridecanoic acid 2-dimethylamino-ethyl ester], the concentration for half-maximal inhibition (IC50) was determined as 23 µM.
In the case of `CCCCCCCCCCCCC(=O)NCCN(C)C` [Tridecanoic acid (2-dimethylamino-ethyl)-amide], the half-maximal inhibitory concentration (IC50) came out at 8.85 µM.
On to `CCCCCCCCCCCCCCCC[N+](CC)(CC)CC` [Triethyl-hexadecyl-ammonium; bromide], for which the midpoint of inhibition, the IC50, lay at 9.62 µM.
The compound `CCCCCCCCCCCCCC[N+](CC)(CC)CC` [Triethyl-tetradecyl-ammonium; bromide] registered an IC50 of 8.45 µM.
